These results are taken from ChEMBL document CHEMBL3826941, “Optimization of pyrazole-containing 1,2,4-triazolo-[3,4-b]thiadiazines, a new class of STAT3 pathway inhibitors” (Bioorg Med Chem Lett, 2016).

A short description of data set [1]: Antiproliferative activity against human CAL33 cells assessed as cell growth inhibition. Type of data set: functional, CAL-33.
The subject of a further data set is FaDu. The data set is described as follows: Antiproliferative activity against human FADU cells assessed as cell growth inhibition. The format is functional.
In data set [2] the target is T1, Signal transducer and activator of transcription 1-alpha/beta (Homo sapiens) (UniProt P42224).
T1 sequence (whole entry): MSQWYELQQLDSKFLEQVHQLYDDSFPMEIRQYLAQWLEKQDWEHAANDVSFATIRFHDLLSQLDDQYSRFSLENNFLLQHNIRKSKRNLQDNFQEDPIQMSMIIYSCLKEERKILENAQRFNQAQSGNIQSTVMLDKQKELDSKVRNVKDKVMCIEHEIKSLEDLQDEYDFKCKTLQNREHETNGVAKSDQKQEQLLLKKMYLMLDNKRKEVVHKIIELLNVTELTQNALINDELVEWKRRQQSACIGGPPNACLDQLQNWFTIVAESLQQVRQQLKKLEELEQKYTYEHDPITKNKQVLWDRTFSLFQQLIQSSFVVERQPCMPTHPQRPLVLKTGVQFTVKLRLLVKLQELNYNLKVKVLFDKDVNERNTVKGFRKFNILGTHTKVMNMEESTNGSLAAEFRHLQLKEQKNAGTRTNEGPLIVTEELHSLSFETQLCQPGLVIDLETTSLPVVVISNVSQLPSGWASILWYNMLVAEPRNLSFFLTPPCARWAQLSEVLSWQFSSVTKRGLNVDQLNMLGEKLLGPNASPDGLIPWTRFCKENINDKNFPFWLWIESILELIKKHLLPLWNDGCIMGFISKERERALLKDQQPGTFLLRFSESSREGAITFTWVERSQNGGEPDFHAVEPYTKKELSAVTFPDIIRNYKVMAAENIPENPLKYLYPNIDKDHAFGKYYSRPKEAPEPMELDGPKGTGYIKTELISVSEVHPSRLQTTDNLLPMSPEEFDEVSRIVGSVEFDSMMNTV
In words: Inhibition of IFNgamma-induced STAT1 (unknown origin) at 50 uM.

The next data set has as its system Liver microsome. In words: Half life in human liver microsomes. The format is ADME.
The nature of data set [3]: Half life in mouse liver microsomes. Type of data set: ADME.
The nature of data set [4]: Antiproliferative activity against human OSC19 cells assessed as cell growth inhibition. The format is functional.
Data set [5] can be described thus: Antiproliferative activity against human 686LN cells assessed as cell growth inhibition. Type of data set: functional.
In data set [6] the target is Signal transducer and activator of transcription 3 (Homo sapiens) (UniProt P40763). In words: Inhibition of STAT3 phosphorylation at Tyr705 in IL6-induced human CAL33 cells assessed as phosphorylated STAT3 at Tyr705 to STAT3 ratio at 10 uM by Western blot analysis. The format is cell-based. As to conditions: CAL-33.
Data set [7] shares this target. In words: Inhibition of STAT3 phosphorylation at Tyr705 in IL6-induced human CAL33 cells assessed as phosphorylated STAT3 at Tyr705 to STAT3 ratio at 100 uM by Western blot analysis. The format is cell-based. As to conditions: CAL-33.
For data set [8] the target is unchanged. In words: Inhibition of STAT3 in IL6-induced human CAL33 cells assessed as inhibition of Bcl-XL gene levels at 3 to 100 uM by Western blot analysis. The format is cell-based. As to conditions: CAL-33.
For data set [9] the target is unchanged. The data set is described as follows: Inhibition of STAT3 phosphorylation at Tyr705 in IL6-induced human CAL33 cells at 3 to 100 uM by Western blot analysis. Type of data set: cell-based. As to conditions: CAL-33.
Data set [10] shares this target. The data set is described as follows: Inhibition of STAT3 phosphorylation at Tyr705 in IL6-induced human CAL33 cells assessed as phosphorylated STAT3 at Tyr705 to STAT3 ratio at 30 uM by Western blot analysis. Type of data set: cell-based. As to conditions: CAL-33.
For data set [11] the target is unchanged. In words: Inhibition of STAT3 in IL6-induced human CAL33 cells assessed as inhibition of cyclin D1 gene levels at 3 to 100 uM by Western blot analysis. Type of data set: cell-based. As to conditions: CAL-33.

Calls of active or inactive are those of the source. The rule behind the calls is not given here.

Chain of Signal transducer and activator of transcription 3 (Homo sapiens) (P40763 whole entry): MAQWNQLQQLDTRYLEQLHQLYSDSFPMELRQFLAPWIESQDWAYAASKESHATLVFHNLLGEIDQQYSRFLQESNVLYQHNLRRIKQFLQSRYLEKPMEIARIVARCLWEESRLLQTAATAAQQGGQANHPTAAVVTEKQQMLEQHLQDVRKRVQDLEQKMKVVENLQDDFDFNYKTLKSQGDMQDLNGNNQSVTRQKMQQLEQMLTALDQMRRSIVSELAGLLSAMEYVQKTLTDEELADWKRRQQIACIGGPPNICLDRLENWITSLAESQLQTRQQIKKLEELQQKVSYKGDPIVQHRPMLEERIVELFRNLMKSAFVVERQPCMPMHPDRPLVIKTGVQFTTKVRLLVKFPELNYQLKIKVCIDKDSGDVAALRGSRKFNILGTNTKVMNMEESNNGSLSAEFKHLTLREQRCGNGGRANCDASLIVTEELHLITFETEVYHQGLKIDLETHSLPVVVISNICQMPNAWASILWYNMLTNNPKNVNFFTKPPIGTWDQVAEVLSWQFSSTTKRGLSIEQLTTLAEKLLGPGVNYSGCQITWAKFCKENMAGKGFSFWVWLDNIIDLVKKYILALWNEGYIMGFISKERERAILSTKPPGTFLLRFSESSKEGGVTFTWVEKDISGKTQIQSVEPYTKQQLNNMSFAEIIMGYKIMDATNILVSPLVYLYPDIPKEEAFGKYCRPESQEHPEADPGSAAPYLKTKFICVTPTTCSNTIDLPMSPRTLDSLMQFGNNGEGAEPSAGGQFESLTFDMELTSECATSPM

Take `CC(C)C1Sc2nnc(-c3[nH]nc4c3CCC4)n2N=C1c1ccc(Cl)c(Cl)c1` (stereo unspecified): the 50% growth inhibitory concentration (GI50) in data set [1] (Homo sapiens, CAL-33) worked out at 8.2 µM.
As for `CC1(C)Sc2nnc(-c3[nH]nc4c3CCC4)n2N=C1c1ccc(Cl)c(Cl)c1`, the GI50 in [1] (Homo sapiens, CAL-33) is greater than 50 µM.
On to `Clc1ccc(C2=Nn3c(nnc3-c3[nH]nc4c3CCC4)SC2)cc1Cl`, for which the GI50 worked out at 14 µM with FaDu; 14 µM in data set [4]; 14 µM in data set [5]; 14 µM in data set [1] (Homo sapiens, CAL-33). Further, the inhibition result in data set [2] was “inactive”. For the same molecule, the t1/2 came to 14 min with Liver microsome and 4 min in data set [3].
Regarding `Clc1ccc(C2=Nn3c(nnc3-c3cc(-c4ccccc4)[nH]n3)SC2)cc1`, the GI50 in the data set on FaDu is 27 µM; in data set [4], 27 µM; in [5], 27 µM; in data set [1] (Homo sapiens, CAL-33) it was 27 µM. Besides, the inhibition result in [2] is “inactive”.
On to `COCCC1Sc2nnc(-c3cc(-c4ccccc4)n[nH]3)n2N=C1c1ccc(OC)cc1` (stereo unspecified), for which the GI50 in data set [1] (Homo sapiens, CAL-33) came out at 0.04 µM.
As to `COc1ccc(C2=Nn3c(nnc3-c3cc(-c4ccc(Cl)cc4)n[nH]3)SC2C)cc1` (stereo in doubt; form 2), the GI50 in [1] is 2.7 µM.
Take `CC1Sc2nnc(-c3[nH]nc4c3CCC4)n2N=C1c1ccc(Cl)c(Cl)c1` (stereo unspecified): in data set [1] (Homo sapiens, CAL-33), the GI50 came to 1.9 µM.
Regarding `CC1Sc2nnc(-c3cc(-c4ccccc4)n[nH]3)n2N=C1c1ccccc1` (stereo unspecified), the concentration for 50% growth inhibition (GI50) in the data set with FaDu came out at 32.7 µM; in [4] it was 31.3 µM; in data set [5] it was 32.2 µM; in [1] (Homo sapiens, CAL-33), 34.1 µM. For the same molecule, the inhibition is 15% in data set [6], 99% in data set [7] and 28% in data set [10]. Further, the inhibition result in data set [8], in data set [9] and in [11] was “Active” throughout. The t1/2 is given as 27 min with Liver microsome and 10 min in [3].
As for `CC(C)CC1Sc2nnc(-c3[nH]nc4c3CCC4)n2N=C1c1ccc(Cl)c(Cl)c1` (stereo unspecified), the GI50 in [1] (Homo sapiens, CAL-33) came out at 3.5 µM.
As for `CC1Sc2nnc(-c3cc(-c4ccc(F)cc4)n[nH]3)n2N=C1c1ccccc1` (stereo unspecified), the GI50 in data set [1] (Homo sapiens, CAL-33) was 36.3 µM.
With `COc1ccc(C2=Nn3c(nnc3-c3[nH]nc4c3CCC4)SC2C(C)C)cc1` (stereo unspecified), the GI50 in data set [1] (Homo sapiens, CAL-33) turned out to be 0.4 µM.
`COc1ccc(C2=Nn3c(nnc3-c3cc(-c4ccc(F)cc4)n[nH]3)SC2C)cc1` (stereo unspecified): the concentration for 50% growth inhibition (GI50) in [1] (Homo sapiens, CAL-33) was found to be 29.5 µM.
`COc1ccc(C2=Nn3c(nnc3-c3cc(-c4ccccc4)n[nH]3)SC2CCN)cc1` (stereo unspecified): in data set [1] (Homo sapiens, CAL-33), the GI50 amounted to 2.5 µM.
Take `Clc1ccc(C2=Nn3c(nnc3-c3[nH]nc4c3CCC4)SC2Cc2ccccc2)cc1Cl` (stereo unspecified): the GI50 in data set [1] (Homo sapiens, CAL-33) is 3.3 µM.
As to `COc1ccc(C2=Nn3c(nnc3-c3cc(-c4ccc(Cl)cc4)n[nH]3)SC2C)cc1` (stereo in doubt; form 1) [listing 1 of 2 here], the GI50 turned out to be 8.4 µM in the data set with FaDu, 14.9 µM in [4], 17.4 µM in data set [5] and 2.2 µM in [1].
With `COc1ccc(C2=Nn3c(nnc3-c3cc(-c4ccc(Cl)cc4)n[nH]3)SC2C)cc1` (stereo in doubt; form 3), the GI50 in data set [1] amounted to 21.8 µM.
Turning to `COc1ccc(C2=Nn3c(nnc3-c3cc(-c4ccccc4)n[nH]3)SC2CC(C)C)cc1` (stereo unspecified), in [1] (Homo sapiens, CAL-33), the GI50 turned out to be 0.5 µM.
`COc1ccc(C2=Nn3c(nnc3-c3cc(-c4ccc(Cl)cc4)n[nH]3)SC2C)cc1` (stereo in doubt; form 1) [listing 2 of 2 here]: the values for the inhibition in data set [6], in data set [7] and in data set [10] were 21%, 99.7% and 55%, respectively. The inhibition entry in [8], in data set [9] and in data set [11] was “Active” each time.
As to `COc1ccc(C2=Nn3c(nnc3-c3[nH]nc4c3CCC4)SC2C)cc1` (stereo unspecified), the GI50 with FaDu is 1.3 µM; in data set [4], 3.1 µM; in [5], 0.88 µM; in data set [1] (Homo sapiens, CAL-33) it was 0.18 µM.
